According to patent publication US20240368139A1, “NOVEL MODULATORS OF EHMT1 AND EHMT2 AND THERAPEUTIC USE THEREOF” (Tango Therapeutics, Inc., priority 2021, published 2024):

Legend:
human EHMT1 982-1266 = biological target: T1, human EHMT1 982-1266 (Homo sapiens, UniProt Q9H9B1); experiment: EHMT1 enzyme assay on histone peptide substrate (3H-SAM SPA); conditions: EHMT1 IC50, recombinant human EHMT1 982-1266, histone peptide substrate
T1 sequence (Q9H9B1 982-1266): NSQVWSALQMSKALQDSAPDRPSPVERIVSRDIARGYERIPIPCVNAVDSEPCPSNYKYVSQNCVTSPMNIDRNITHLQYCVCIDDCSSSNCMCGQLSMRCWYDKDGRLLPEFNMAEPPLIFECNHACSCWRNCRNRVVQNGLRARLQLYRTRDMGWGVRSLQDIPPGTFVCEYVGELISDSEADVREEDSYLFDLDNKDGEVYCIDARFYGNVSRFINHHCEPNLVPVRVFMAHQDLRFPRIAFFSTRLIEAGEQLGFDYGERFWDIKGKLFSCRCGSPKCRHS

H3K9me2 in HCT116 cells = experiment: HCT116 H3K9me2 in-cell western assay; assay type: cell-based; conditions: Homo sapiens, HCT-116, 72 h, HCT116 cells, 72 hours incubation; read-out: H3K9me2 ICW IC50
Source text: HCT116 cell line was purchased from ATCC (Manassas, VA, USA). […] Penicillin-Streptomycin and heat inactivated fetal bovine serum were purchased from Hyclone (Logan, UT, USA). DPBS, Corning^R were purchased from VWR (Radnor, PA, USA). Triton′ X-100 was purchased from Sigma (St. Louis, MO, USA). Intercept blocking buffer, DRAQ5, Licor Odyssey Infrared Scanner were purchased from Licor Biosciences (Lincoln, NB, USA). Plate washer was purchased from BioTek (Winooski, VT, USA). […] 16% Paraformaldehyde was purchased from Electron Microscopy Sciences (Hatfield, PA, USA). HCT116 cells were maintained in complete growth medium (RPMI supplemented with 10% heat inactivated fetal bovine serum, 1% Penicillin-Streptomycin) and cultured at 37° C. under 5% CO2. N^2-(4-methoxy-3-(3-(pyrrolidin-1-yl)propoxy)phenyl)-N^4,6-dimethyl]pyrimidine-2,4-diamine (synthesis disclosed in International Application WO2017181177A1) was used as a control compound.
HCT116 cells (ATCC) were trypsinized, counted and seeded in assay medium (RPMI supplemented with 10% heat inactivated fetal bovine serum, 1% Penicillin-Streptomycin) at a concentration of 2,000 cells per well to a 384-well cell culture plate with compounds in 50 μl per well. Plates were incubated with at 37° C. under 5% CO2 for 72 hours. After the incubation, 50 μl per well of 8% paraformaldehyde in PBS was added to the plates and incubated at room temperature for 20 minutes. Plates were transferred to a BioTek (EL406) plate washer and washed 5 times with 110 μl per well of wash buffer (1×PBS containing 0.1% Triton X-100). The plates were next blocked with 50 μl of Intercept blocking buffer for 1 hour at room temperature. Blocking buffer was removed and 30 μl per well of monoclonal primary antibody of H3K9me2 (CST) diluted 1:200 in Intercept blocking buffer were added and plates were incubated overnight at 4° C. The plates were then washed 5 times with 110 μl per well of wash buffer (1×PBS containing 0.1% Triton X-100). Next 30 μl per well of secondary was added (1:400 800 CW goat anti-rabbit IgG in blocking buffer) with 1:1000 DRAQ5 in blocking buffer and incubated for 2 hours at room temperature. The plates were washed 5 times with 110 μl per well of wash buffer (1×PBS containing 0.1% Triton X-100) then with 100 μl per well of water once. Plates were allowed to dry at room temperature then imaged on a Licor Odyssey Infrared Scanner which measured integrated intensity at 700 nm and 800 nm wavelength. Both 700 and 800 channels were scanned.
The average of the ratio values (800 nm/700 nm) for each well was calculated and used to determine the percentage for each test well in the plate. Compounds were serially diluted two-fold in 0.1% DMSO for a total of 10 test concentrations beginning at 10 μM. IC50 curves were generated using duplicate wells per concentration of compound. […] IC50 values were calculated using a non-linear regression of Prism.

human EHMT2 913-1193 = biological target: T2, human EHMT2 913-1193 (Homo sapiens, UniProt Q96KQ7); experiment: EHMT2 enzyme assay on histone peptide substrate (3H-SAM SPA); conditions: EHMT2 IC50, recombinant human EHMT2 913-1193, histone peptide substrate
T2 sequence (Q96KQ7 913-1193): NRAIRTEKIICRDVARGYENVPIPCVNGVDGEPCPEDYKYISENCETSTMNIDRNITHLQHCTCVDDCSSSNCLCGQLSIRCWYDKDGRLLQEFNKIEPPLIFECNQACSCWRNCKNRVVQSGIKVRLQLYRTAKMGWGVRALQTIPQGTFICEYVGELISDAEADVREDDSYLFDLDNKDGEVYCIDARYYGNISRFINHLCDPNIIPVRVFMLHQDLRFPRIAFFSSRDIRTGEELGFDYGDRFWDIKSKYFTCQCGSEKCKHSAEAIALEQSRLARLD

Compound	IC50 (human EHMT1 982-1266) [µM]	IC50 (H3K9me2 in HCT116 cells) [µM]	IC50 (human EHMT2 913-1193) [µM]
CNc1nc(Nc2cc(OCCCN3CCCC3)c3occc3c2)nc(C)c1F [Compound 109, 5-fluoro-N4,6-dimethyl-N2-[7-(3-pyrrolidin-1-ylpropoxy)benzofuran-5-yl]pyrimidine-2,4-diamine]	> 2	> 2	> 2
CNc1cc(C)nc(Nc2cc3c(c(OCCN4CCCC4)c2)OCC3)n1 [Compound 112, N4,6-dimethyl-N2-[7-(2-pyrrolidin-1-ylethoxy)-2,3-dihydrobenzofuran-5-yl]pyrimidine-2,4-diamine]	0.1 to 0.5	0.5 to 2	> 2
CNc1cc(C)nc(Nc2cc3c(c(OCCCN4CCCC4)c2)OCC(=O)N3)n1 [Compound 114]	> 2	> 2	> 2
Cc1cc(N)nc(Nc2cc3c(c(OCCCN4CCCC4)c2)OCC3)n1 [Compound 115, 6-methyl-N2-[7-(3-pyrrolidin-1-ylpropoxy)-2,3-dihydrobenzofuran-5-yl]pyrimidine-2,4-diamine]	> 2	0.5 to 2	> 2
Cc1cc(NC2CCCC2)nc(Nc2cc3c(c(OCCCN4CCCC4)c2)OCC3)n1 [Compound 116, N4-cyclopentyl-6-methyl-N2-[7-(3-pyrrolidin-1-ylpropoxy)-2,3-dihydrobenzofuran-5-yl]pyrimidine-2,4-diamine]	0.5 to 2	> 2	> 2
Cc1cc(NC2CCCCC2)nc(Nc2cc3c(c(OCCCN4CCCC4)c2)OCC3)n1 [Compound 117, N4-cyclohexyl-6-methyl-N2-[7-(3-pyrrolidin-1-ylpropoxy)-2,3-dihydrobenzofuran-5-yl]pyrimidine-2,4-diamine]	0.5 to 2	> 2	> 2
Cc1cc(NC2CCC2)nc(Nc2cc3c(c(OCCCN4CCCC4)c2)OCC3)n1 [Compound 119, N4-cyclobutyl-6-methyl-N2-[7-(3-pyrrolidin-1-ylpropoxy)-2,3-dihydrobenzofuran-5-yl]pyrimidine-2,4-diamine]	0.5 to 2	0.5 to 2	> 2
CNc1cc(C)nc(Nc2cc(OCCCN3CCCC3)c3oc(=O)[nH]c3c2)n1 [Compound 124, 5-[[4-methyl-6-(methylamino)pyrimidin-2-yl]amino]-7-(3-pyrrolidin-1-ylpropoxy)-3H-1,3-benzoxazol-2-one]	0.1 to 0.5	> 2	> 2
CNc1cc(C)nc(Nc2cc3c(c(N4CCCNCC4)c2)OCC3)n1 [Compound 125, N2-[7-(1,4-diazepan-1-yl)-2,3-dihydrobenzofuran-5-yl]-N4,6-dimethyl-pyrimidine-2,4-diamine]	0.5 to 2	0.5 to 2	0.5 to 2
CNc1cc(C)nc(Nc2cc3c(c(N4CCCN(C)CC4)c2)OCC3)n1 [Compound 126, N4,6-dimethyl-N2-[7-(4-methyl-1,4-diazepan-1-yl)-2,3-dihydrobenzofuran-5-yl]pyrimidine-2,4-diamine]	0.5 to 2	0.5 to 2	0.5 to 2
CNc1cc(C)nc(Nc2cc(OCCCN3CCCC3)c3c(c2)N(Cc2ccccc2)CCO3)n1 [Compound 127, N2-[4-benzyl-8-(3-pyrrolidin-1-ylpropoxy)-2,3-dihydro-1,4-benzoxazin-6-yl]-N4,6-dimethyl-pyrimidine-2,4-diamine]	0.1 to 0.5	0.5 to 2	0.5 to 2
